Test results taken from patent US9937151B2, “Carbapenem antibacterials with gram-negative activity” (priority 2010, dated 2018).
≈ marks a conversion by molar mass, not a printed value.

Test system: G(−) bacterial strains
Test: Dilution antimicrobial susceptibility tests (MIC, NCCLS agar dilution / broth dilution)
Format: cell-based, Gram-negative organisms
Conditions: unit assumed
Experimental: The MIC (minimum inhibitory concentration) was determined by the NCCLS (National Committee for Clinical Laboratory Standards) methods 2000. Methods for dilution antimicrobial susceptibility testing for bacteria that growth aerobically (M7-A5, vol. 20, No. 2). The agar dilution method for determining antimicrobial susceptibility was carried out using Mueller-Hinton agar. A final inoculum of 10^4 CFU/spot was applied with an inoculation device. Broth dilution tests were performed with 5×10^5 CFU/well in 96 well plates. The susceptibilities of streptococci were determined by Mueller-Hinton agar supplemented with 5% sheep blood. All assays were run with the indicated control strains, available from the ATCC (American Type Culture Collection, Rockville, Md.).
Abbreviations used in Table 1 are defined as follows: Cf-R: Ceftazidime Resistance, Ci-R: Ciprofloxacin Resistance, Gen-R: Gentamycin Resistance, Imp-R: Imipenem Resistance, Mp-R: Meropenem Resistance, Ofx-R: Ofloxacin Resistance, B+: β-lactamase Production, AmpC: AmpC-lactamase Hyper production, CBPase: Carbapenemase Production.

[1] = strain #1 Acinetobacter calcoaceticus
[2] = strain #2 Acinetobacter baumannii, Cf-R, Ci-R
[3] = strain #3 Acinetobacter baumannii, Cf-R, Ci-R, Mp-I
[4] = strain #4 Acinetobacter baumannii, Cf-R, Imp-I, CBPase
[5] = strain #7 Enterobacter aerogenes
[6] = strain #8 Enterobacter cloacae, Cf-R, B+
[7] = strain #9 Enterobacter cloacae, Cf-R
[8] = strain #10 Escherichia coli, Ci-R
[9] = strain #11 Escherichia coli, Ci-R, AmpC
[10] = strain #15 Klebsiella pneumoniae
[11] = strain #16 Moraxella catarrhalis
[12] = strain #21 Providencia rettgeri
[13] = strain #22 Salmonella typhimurium
[14] = strain #25 Shigella dysenteriae
[15] = strain #28 Stenotrophomonas maltophilia
[16] = strain #29 Pseudomonas aeruginosa
[17] = strain #30 Pseudomonas aeruginosa
[18] = strain #31 Pseudomonas aeruginosa, Ofx-R
[19] = strain #32 Pseudomonas aeruginosa, Cf-R
[20] = strain #33 Pseudomonas aeruginosa, Ci-R
[21] = strain #34 Pseudomonas aeruginosa, Gen-R
[22] = strain #35 Pseudomonas aeruginosa, Ip-R
[23] = strain #36 Pseudomonas aeruginosa, Cf-R, Ci-R, Mp-R

Compound	MIC [1] [µg/mL]	MIC [2] [µg/mL]	MIC [3] [µg/mL]	MIC [4] [µg/mL]	MIC (strain #5 Citrobacter diversus) [µg/mL]	MIC (strain #6 Citrobacter freundii) [µg/mL]	MIC [5] [µg/mL]	MIC [6] [µg/mL]	MIC [7] [µg/mL]	MIC [8] [µg/mL]	MIC [9] [µg/mL]	MIC (strain #12 Escherichia coli) [µg/mL]	MIC (strain #13 Escherichia coli) [µg/mL]	MIC (strain #14 Klebsiella oxytoca) [µg/mL]	MIC [10] [µg/mL]	MIC [11] [µg/mL]	MIC (strain #17 Morganella Morganii) [µg/mL]	MIC (strain #18 Morganella Morganii) [µg/mL]	MIC (strain #19 Proteus vulgaris) [µg/mL]	MIC (strain #20 Proteus mirabilis) [µg/mL]	also measured
C[C@@H](O)C1C(=O)N2C(C(=O)O)=C(CN3CC[C@H](NS(N)(=O)=O)C3)[C@H](C)C12 (stereo partly drawn) [Compound 72]	1 (≈ 2.57 µM)	2 (≈ 5.15 µM)	4 (≈ 10.3 µM)	4 (≈ 10.3 µM)	0.5 (≈ 1.29 µM)	0.5 (≈ 1.29 µM)	1 (≈ 2.57 µM)	0.25 (≈ 0.644 µM)	1 (≈ 2.57 µM)	0.25 (≈ 0.644 µM)	0.25 (≈ 0.644 µM)	0.25 (≈ 0.644 µM)	0.5 (≈ 1.29 µM)	1 (≈ 2.57 µM)	0.5 (≈ 1.29 µM)	0.016 (≈ 0.0412 µM)	4 (≈ 10.3 µM)	4 (≈ 10.3 µM)	2 (≈ 5.15 µM)	0.5 (≈ 1.29 µM)	MIC [12]: 2 µg/mL (≈ 5.15 µM); MIC [13]: 0.5 µg/mL (≈ 1.29 µM); MIC (strain #23 Serratia marcescens): 1 µg/mL (≈ 2.57 µM); MIC (strain #24 Serratia marcescens): 1 µg/mL (≈ 2.57 µM); MIC [14]: 0.5 µg/mL (≈ 1.29 µM); MIC (strain #26 Shigella sonnei): 0.5 µg/mL (≈ 1.29 µM); MIC (strain #27 Shigella flexneri): 0.25 µg/mL (≈ 0.644 µM); MIC [15]: 0.5 µg/mL (≈ 1.29 µM); MIC [16]: 8 µg/mL (≈ 20.6 µM); MIC [17]: 8 µg/mL (≈ 20.6 µM); MIC [18]: 2 µg/mL (≈ 5.15 µM); MIC [19]: 4 µg/mL (≈ 10.3 µM); MIC [20]: 8 µg/mL (≈ 20.6 µM); MIC [21]: 8 µg/mL (≈ 20.6 µM); MIC [22]: 8 µg/mL (≈ 20.6 µM); MIC [23]: 32 µg/mL (≈ 82.4 µM)
C[C@@H](O)C1C(=O)N2C(C(=O)O)=C(CN3CC[C@H](NC(N)=O)C3)[C@H](C)C12 (stereo partly drawn) [Compound 78]	2 (≈ 5.68 µM)	2 (≈ 5.68 µM)	4 (≈ 11.4 µM)	4 (≈ 11.4 µM)	0.5 (≈ 1.42 µM)	0.5 (≈ 1.42 µM)	2 (≈ 5.68 µM)	0.5 (≈ 1.42 µM)	1 (≈ 2.84 µM)	0.5 (≈ 1.42 µM)	0.5 (≈ 1.42 µM)	0.5 (≈ 1.42 µM)	1 (≈ 2.84 µM)	1 (≈ 2.84 µM)	1 (≈ 2.84 µM)	0.016 (≈ 0.0454 µM)	8 (≈ 22.7 µM)	4 (≈ 11.4 µM)	4 (≈ 11.4 µM)	1 (≈ 2.84 µM)	MIC [12]: 4 µg/mL (≈ 11.4 µM); MIC [13]: 1 µg/mL (≈ 2.84 µM); MIC (strain #23 Serratia marcescens): 2 µg/mL (≈ 5.68 µM); MIC (strain #24 Serratia marcescens): 2 µg/mL (≈ 5.68 µM); MIC [14]: 1 µg/mL (≈ 2.84 µM); MIC (strain #26 Shigella sonnei): 1 µg/mL (≈ 2.84 µM); MIC (strain #27 Shigella flexneri): 0.5 µg/mL (≈ 1.42 µM); MIC [15]: 1 µg/mL (≈ 2.84 µM); MIC [16]: 8 µg/mL (≈ 22.7 µM); MIC [17]: 8 µg/mL (≈ 22.7 µM); MIC [18]: 2 µg/mL (≈ 5.68 µM); MIC [19]: 16 µg/mL (≈ 45.4 µM); MIC [20]: 16 µg/mL (≈ 45.4 µM); MIC [21]: 16 µg/mL (≈ 45.4 µM); MIC [22]: 16 µg/mL (≈ 45.4 µM); MIC [23]: > 32 µg/mL
C[C@@H](O)C1C(=O)N2C(C(=O)O)=C(CN3CC[C@H](NCC(N)=O)C3)[C@H](C)C12 (stereo partly drawn) [Compound 83]	2 (≈ 5.46 µM)	4 (≈ 10.9 µM)	8 (≈ 21.8 µM)	8 (≈ 21.8 µM)	0.5 (≈ 1.36 µM)	1 (≈ 2.73 µM)	4 (≈ 10.9 µM)	0.5 (≈ 1.36 µM)	1 (≈ 2.73 µM)	0.5 (≈ 1.36 µM)	0.5 (≈ 1.36 µM)	0.5 (≈ 1.36 µM)	1 (≈ 2.73 µM)	2 (≈ 5.46 µM)	1 (≈ 2.73 µM)	0.031 (≈ 0.0846 µM)	8 (≈ 21.8 µM)	8 (≈ 21.8 µM)	4 (≈ 10.9 µM)	1 (≈ 2.73 µM)	MIC [12]: 4 µg/mL (≈ 10.9 µM); MIC [13]: 1 µg/mL (≈ 2.73 µM); MIC (strain #23 Serratia marcescens): 2 µg/mL (≈ 5.46 µM); MIC (strain #24 Serratia marcescens): 2 µg/mL (≈ 5.46 µM); MIC [14]: 1 µg/mL (≈ 2.73 µM); MIC (strain #26 Shigella sonnei): 1 µg/mL (≈ 2.73 µM); MIC (strain #27 Shigella flexneri): 0.5 µg/mL (≈ 1.36 µM); MIC [15]: 1 µg/mL (≈ 2.73 µM); MIC [16]: 16 µg/mL (≈ 43.7 µM); MIC [17]: 16 µg/mL (≈ 43.7 µM); MIC [18]: 8 µg/mL (≈ 21.8 µM); MIC [19]: 16 µg/mL (≈ 43.7 µM); MIC [20]: 16 µg/mL (≈ 43.7 µM); MIC [21]: 32 µg/mL (≈ 87.3 µM); MIC [22]: 32 µg/mL (≈ 87.3 µM); MIC [23]: > 32 µg/mL
C[C@@H](O)C1C(=O)N2C(C(=O)O)=C(CN3CC[C@H](NC=N)C3)[C@H](C)C12 (stereo partly drawn) [Compound 84]	0.25 (≈ 0.743 µM)	0.5 (≈ 1.49 µM)	1 (≈ 2.97 µM)	1 (≈ 2.97 µM)	0.25 (≈ 0.743 µM)	0.5 (≈ 1.49 µM)	1 (≈ 2.97 µM)	0.25 (≈ 0.743 µM)	0.5 (≈ 1.49 µM)	0.25 (≈ 0.743 µM)	0.25 (≈ 0.743 µM)	0.25 (≈ 0.743 µM)	0.5 (≈ 1.49 µM)	0.5 (≈ 1.49 µM)	0.5 (≈ 1.49 µM)	≤ 0.008	4 (≈ 11.9 µM)	2 (≈ 5.95 µM)	1 (≈ 2.97 µM)	0.5 (≈ 1.49 µM)	MIC [12]: 2 µg/mL (≈ 5.95 µM); MIC [13]: 0.5 µg/mL (≈ 1.49 µM); MIC (strain #23 Serratia marcescens): 1 µg/mL (≈ 2.97 µM); MIC (strain #24 Serratia marcescens): 1 µg/mL (≈ 2.97 µM); MIC [14]: 0.5 µg/mL (≈ 1.49 µM); MIC (strain #26 Shigella sonnei): 0.5 µg/mL (≈ 1.49 µM); MIC (strain #27 Shigella flexneri): 0.25 µg/mL (≈ 0.743 µM); MIC [15]: 0.25 µg/mL (≈ 0.743 µM); MIC [16]: 2 µg/mL (≈ 5.95 µM); MIC [17]: 2 µg/mL (≈ 5.95 µM); MIC [18]: 0.5 µg/mL (≈ 1.49 µM); MIC [19]: 2 µg/mL (≈ 5.95 µM); MIC [20]: 2 µg/mL (≈ 5.95 µM); MIC [21]: 2 µg/mL (≈ 5.95 µM); MIC [22]: 4 µg/mL (≈ 11.9 µM); MIC [23]: 16 µg/mL (≈ 47.6 µM)
